Experiment in all cases: growth of human tumour cells (NCI), 48 h
The test system of experiment [1] is 786-0 renal.
In experiment [2] the test system is ACHN renal.
Experiment [3] deals with COLO 205 colon.
The test system of experiment [4] is EKVX NSCLC.
For experiment [5], the system named is HCT-116 colon.
For experiment [6], the system named is HCT-15 colon.
Experiment [7] concerns HOP-62 NSCLC.
The test system of experiment [8] is KM12 colon.
In experiment [9] the test system is MALME-3M melanoma.
Experiment [10] deals with SN12C renal.

Where “and” joins values, the source holds several entries; their conditions need not be identical. Equal entries are not always repeated.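 Method: 48-hour compound exposure of cells in 96-well plates, five concentrations, linear interpolation of endpoints. The concentration for 50% growth inhibition is given as GI50. TGI: concentration producing complete growth inhibition.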 A value given as a limit tells only on which side of the number the result lay.

As to `S=C(N/N=C(/c1ccccc1)c1ccccn1)N1CCCCCC1`, the GI50 in [1] is less than 0.001 µM; in experiment [2], 0.00216 µM; in experiment [3] it was less than 0.001 µM; in experiment [4], 0.641 µM; in experiment [5], less than 0.001 µM; in experiment [6], 0.00327 µM. Further, the GI50 in experiment [8] is 0.0105 µM; in experiment [9], 0.0392 µM. Besides, the TGI in experiment [1] was 1.46 µM and 1.77 µM; in experiment [2], 1.58 µM and 1.47 µM; in experiment [4] it was 1.94 µM and 0.365 µM; in experiment [5] it was 1.43 µM and 1.38 µM; in [6], 2.05 µM and 1.53 µM; in experiment [7], 1.91 µM. The TGI in experiment [8] is 1.57 µM and 1.5 µM; in [9] it was 1.96 µM and 2.01 µM; in experiment [10], 1.91 µM.
Consider `CSc1ncnc2c1ncn2C1OC(CO)C(O)OC1O` (configuration not stated), for which the TGI in experiment [1] was 43.5 µM; in experiment [2], more than 100 µM; in [3] it was 11.8 µM; in experiment [4] it was more than 66.3 µM; in experiment [5] it was 21.6 µM; in [6], more than 100 µM. The TGI in experiment [7] is 35.4 µM; in [8], 36.8 µM; in experiment [9], 70.5 µM; in experiment [10], 41.3 µM.
For the compound `CN(C)CCCNC(=O)c1cncnc1Nc1ccc(OCc2cccc(F)c2)c(Cl)c1`, the GI50 was 1.66 µM in [1]; 1.7 µM in experiment [2]; 1.79 µM in experiment [3]; 1.58 µM in [4]; 1.47 µM in experiment [5]; 1.38 µM in experiment [6]. For the same compound, the GI50 in experiment [7] is 1.75 µM; in experiment [8], 1.74 µM; in experiment [9] it was 1.64 µM; in experiment [10], 1.67 µM. Besides, the TGI was 3.1 µM in experiment [1]; 3.06 µM in experiment [2]; 3.57 µM in experiment [3]; 3.15 µM in experiment [4]; 2.79 µM in experiment [5]; 2.75 µM in [6]. The TGI in experiment [7] came out at 3.48 µM; in [8], 3.33 µM; in experiment [9], 3.02 µM; in [10] it was 3.14 µM.
`O=C1OC(c2ccccc2)(c2cc(Br)c(O)c(Br)c2)c2ccccc21` (configuration not stated): the GI50 in experiment [1] was 19.3 µM; in experiment [2], 34.5 µM; in [3], 18.2 µM; in experiment [4], 31.7 µM; in experiment [5], 15.6 µM; in experiment [6] it was 25.8 µM. In addition, the GI50 in experiment [7] is 17.9 µM; in experiment [8] it was 21.9 µM; in experiment [9], 25.3 µM; in experiment [10] it was 50 µM. In addition, the TGI was 38.7 µM in experiment [1]; more than 100 µM in [2]; 39.4 µM in experiment [3]; more than 100 µM in [4]; 29.1 µM in experiment [5]; 76.2 µM in experiment [6]. Further, the TGI was 43.5 µM in experiment [7], 60.5 µM in [8], 77.5 µM in experiment [9] and more than 100 µM in [10].
In the case of `CCCCCCCCCCCCOC1C(C(CC(=O)N2CCN(c3cccc(C(F)(F)F)c3)CC2)NS(=O)(=O)c2cc(Cl)cc(Cl)c2)OC2OC(C)(C)OC21` (configuration not stated), the GI50 in [1], in experiment [2], in experiment [3], in experiment [4], in experiment [5] and in [6] was more than 100 µM in each case. In addition, the GI50 in [7], in experiment [8], in experiment [9] and in experiment [10] was more than 100 µM each time. The TGI in experiment [1], in experiment [2], in experiment [3], in experiment [4], in experiment [5] and in experiment [6] was more than 100 µM in each case. The TGI in [7], in experiment [8], in experiment [9] and in experiment [10] was more than 100 µM in each case.
Take `NCCN1C(=O)C2C3c4ccccc4C(c4ccccc43)C2C1=O` (configuration not stated): the TGI in experiment [1], in experiment [2], in [3], in experiment [4], in experiment [5] and in [6] was more than 100 µM throughout. For the same compound, the TGI in experiment [7], in experiment [8], in experiment [9] and in experiment [10] was more than 100 µM throughout.
Consider `CNC(=O)Oc1cc(C)c(/C=C/c2cncc(C(=O)NC)c2)c(C)c1`, for which the GI50 in [1], in experiment [2], in experiment [3], in experiment [4], in [5] and in experiment [6] was more than 25 µM throughout. Moreover, the GI50 in experiment [7] is more than 22.3 µM; in [8], more than 25 µM; in [9] it was 13.6 µM; in experiment [10], more than 25 µM. For the same compound, the TGI in experiment [1], in experiment [2], in experiment [3], in [4], in [5] and in experiment [6] was more than 25 µM each time. The TGI in experiment [7], in [8], in experiment [9] and in experiment [10] was more than 25 µM throughout.

The record behind these values is PubChem BioAssay (NCI).
